From patent US9139548B2, “Polycyclic derivatives, preparation process and pharmaceutical use thereof” (Jiangsu Hengrui Medicine Co., Ltd., priority 2012, dated 2015)

Columns and labels:
GPR40 = target: T1, GPR40 (Homo sapiens, UniProt O14842); assay: Agonist activity on CHO-K1/GPR40 cell (Fluo-4 calcium fluorescence); format: cell-based; conditions: CHO-K1 cell line expressing GPR40, calcium ion fluorescence
T1 construct: host or cells: CHO-K1 (Cell bank of the Chinese Academy of Sciences, GNHa 7), retrovirus infection
Text: Agonist activity of compounds of the present disclosure on CHO-K1/GPR40 cell.
The following method was used to determine the agonist activity of compounds of the present disclosure on GPR40. The experiment process is described as follows:
CHO-K1/GPR40 cell (CHO-K1 cell line expressing GPR40, which was constructed using retrovirus infection method, CHO-K1/GPR40 cell for short, wherein CHO-K1 cell was purchased from Cell bank of the Chinese Academy of Sciences, catalogue number GNHa 7; GPR40 cDNA was purchased from Guangzhou FulenGen Co., Ltd, catalogue number EX-UO270-MO2) was inoculated in a 96-well plate with an inoculation density of 25000 cells/well. The cell plate was incubated at 37° C. and 5% CO2 for 24 hours. The cell culture fluid was discarded during the experiment, the cells were washed with buffer solution (1×HBSS+20 mM HEPES pH 7.4) once, 100 μL of Fluo-4 calcium ion dye was quickly added into each well, incubated at 37° C. in the dark for 30 minutes, and then at room temperature for another 30 minutes. During the determination, the baseline value of each well was read at first, and then different concentrations of drug were added to the wells (50 μL/well), and the fluorescence values were then read. The fluorescence excitation wavelength was 494 nm and the emission wavelength was 516 nm. The increase of fluorescence intensity was proportional to calcium ion level in the cells. Cell response rate of each cell/(The maximum fluorescence value−The minimum fluorescence value)/The minimum fluorescence value. EC50 values of the compounds were calculated

[1] = tested on: ICR mice fed on a high fat diet; assay: Oral glucose tolerance test (OGTT) in glucose load mice fed on a high fat diet; format: in vivo; conditions: blood glucose AUC, high fat diet ICR male mice
Procedure: ICR mice fed on a high fat diet were used as test animals. The effect of oral administration of a single dose of the compounds of the present disclosure on oral glucose tolerance test (OGTT) of glucose load mice was studied.
Compounds of Example 1, Example 2, Example 13, Example 16, Example 18, Example 19 and Example 26
Healthy ICR male mice were purchased from SINO-BRITSH SIPPR/BK LAB. ANIMAL LTD., CO, License number: SCXK (Shanghai) 2008-0016
The test compounds were added to aqueous 0.5% CMC-Na solution to prepare the corresponding concentration suspension using microwave.
After an overnight fast for 16 hours, male mice fed on a high fat diet were weighed, and the basic blood glucose was determined. The mice were randomly divided into a Blank group and the group of each test compound of the present disclosure according to the level of blood glucose.
The dosage of administration was 20 mg/kg or 40 mg/kg, and the Blank group was administered aqueous 0.5 CMC-Na solution.
20% Glucose solution was administered 15 minutes after intragastrical administration (each mouse was administered 0.4 mL)
The compounds were administered according to the aforesaid dosage to determine the blood glucose value (−15 minutes).
At 15 minutes after administration, 20% glucose solution was administrated at a dose of 2 g/kg and the blood glucose values at 0, 15, 30, 45, 60 and 120 minutes in each mouse were determined by Roche Accu-Chek blood glucose monitoring meter.
Using Excel statistical software: the average value was calculated with avg; SD value was calculated with STDEV; and P value of difference among groups was calculated with TTEST. • AUC calculation formula: AUC=(t15min+t0min)×0.25/2+(t30min+t15min)×0.25/2+(t45min+t30min)×0.25/2+(t60min+t45min)×0.25/2+(t120min+t60min)×1/2 • Wherein t0min, t15min, t30min, t45min, t60min, t120min were blood glucose values determined at different time points.

T1 sequence (O14842 whole entry): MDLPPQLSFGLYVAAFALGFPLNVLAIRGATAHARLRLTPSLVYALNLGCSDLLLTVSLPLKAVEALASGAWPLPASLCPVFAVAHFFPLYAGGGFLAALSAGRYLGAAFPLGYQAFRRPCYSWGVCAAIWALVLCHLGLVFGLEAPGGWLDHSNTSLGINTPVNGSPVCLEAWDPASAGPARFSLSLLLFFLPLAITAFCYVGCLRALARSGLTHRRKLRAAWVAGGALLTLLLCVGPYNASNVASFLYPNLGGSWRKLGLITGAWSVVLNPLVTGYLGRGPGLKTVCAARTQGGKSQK

SMILES | EC50 (GPR40) [nM] | AUC decrease rate % ([1]; single oral dose 40 mg/kg) [%] | AUC decrease rate % ([1]; single oral dose 20 mg/kg) [%]
Cc1cc(OC2CCN(S(C)(=O)=O)CC2)cc(C)c1-c1cccc(COc2ccc3c(c2)OC[C@H]3CC(=O)O)c1 [Example 5, (S)-2-(6-((2′,6′-Dimethyl-4′-((1-(methylsulfonyl)piperidin-4-yl)oxy)biphenyl-3-yl)methoxy)-2,3-dihydrobenzofuran-3-yl)acetic acid] | 107 | – | –
Cc1cc(O[C@H]2CCN(S(C)(=O)=O)C2)cc(C)c1-c1cccc(COc2ccc3c(c2)OC[C@H]3CC(=O)O)c1 [Example 8, 2-((S)-6-((2′,6′-Dimethyl-4′-(((S)-1-(methylsulfonyl)pyrrolidin-3-yl)oxy)biphenyl-3-yl)methoxy)-2,3-dihydrobenzofuran-3-yl)acetic acid] | 88 | – | –
Cc1cc(OC2CCCC2)cc(C)c1-c1cccc(COc2ccc3c(c2)OC[C@H]3CC(=O)O)c1 [Example 10, (S)-2-(6-((4′-(Cyclopentyloxy)-2′,6′-dimethylbiphenyl-3-yl)methoxy)-2,3-dihydrobenzofuran-3-yl)acetic acid] | 134 | – | –
Cc1cc(O[C@H]2CCOC2)c(F)c(C)c1-c1cccc(COc2ccc3c(c2)OC[C@H]3CC(=O)O)c1 [Example 19, 2-((S)-6-((3′-Fluoro-2′,6′-dimethyl-4′-(((S)-tetrahydrofuran-3-yl)oxy)biphenyl-3-yl)methoxy)-2,3-dihydrobenzofuran-3-yl)acetic acid] | 55 | 36.78 | –
Cc1cc(OC2CN(C(=O)CO)C2)cc(C)c1-c1cccc(COc2ccc3c(c2)OC[C@H]3CC(=O)O)c1 [Example 21, (S)-2-(6-((4′-((1-(2-hydroxyacetyl)azetidin-3-yl)oxy)-2′,6′-dimethylbiphenyl-3-yl)methoxy)-2,3-dihydrobenzofuran-3-yl)acetic acid] | 131 | – | –
Cc1ccc(-c2c(C)cc(O[C@H]3CCOC3)cc2C)cc1COc1ccc2c(c1)OC[C@H]2CC(=O)O [Example 27, 2-((S)-6-((2′,4,6′-trimethyl-4′-(((S)-tetrahydrofuran-3-yl)oxy)biphenyl-3-yl)methoxy)-2,3-dihydrobenzofuran-3-yl)acetic acid] | 53 | – | –
Cc1cc(O[C@@H]2CCOC2)c(F)c(C)c1-c1cccc(COc2ccc3c(c2)OC[C@H]3CC(=O)O)c1 [Example 28, 2-((S)-6-((3′-fluoro-2′,6′-dimethyl-4′-(((R)-tetrahydrofuran-3-yl)oxy)biphenyl-3-yl)methoxy)-2,3-dihydrobenzofuran-3-yl)acetic acid] | 82 | – | –
Cc1cc(O[C@H]2COC[C@@H]2O)cc(C)c1-c1cccc(COc2ccc3c(c2)OC[C@H]3CC(=O)O)c1 [Example 29, 2-((S)-6-((4′-(((3S,4S)-4-hydroxytetrahydrofuran-3-yl)oxy)-2′,6′-dimethylbiphenyl-3-yl)methoxy)-2,3-dihydrobenzofuran-3-yl)acetic acid] | 41 | – | 20.41
Cc1cc(O[C@@H]2CCOC2)cc(C)c1-c1cccc(COc2ccc3c(c2)OC[C@@H]3CC(=O)O)c1 [Example 33, 2-((R)-6-((2′,6′-dimethyl-4′-(((R)-tetrahydrofuran-3-yl)oxy)biphenyl-3-yl)methoxy)-2,3-dihydrobenzofuran-3-yl)acetic acid] | 113 | – | –

More lines, in order of falling EC50 (GPR40), values ahead:

EC50 (GPR40) [nM] | SMILES | AUC decrease rate % ([1]; single oral dose 40 mg/kg) [%] | AUC decrease rate % ([1]; single oral dose 20 mg/kg) [%]
157 | Cc1cc(O[C@@H]2CCC[C@H]2O)cc(C)c1-c1cccc(COc2ccc3c(c2)OC[C@H]3CC(=O)O)c1 (mixture of isomers) [Example 17, 2-((S)-6-((4′-(((1R,2R)/(1S,2S)-2-Hydroxycyclopentyl)oxy)-2′,6′-dimethylbiphenyl-3-yl)methoxy)-2,3-dihydrobenzofuran-3-yl)acetic acid] | – | –
141 | COC(=O)N1CCC(Oc2cc(C)c(-c3cccc(COc4ccc5c(c4)OC[C@H]5CC(=O)O)c3)c(C)c2)CC1 [Example 23, (S)-2-(6-((4′-((1-(methoxycarbonyl)piperidin-4-yl)oxy)-2′,6′-dimethylbiphenyl-3-yl)methoxy)-2,3-dihydrobenzofuran-3-yl)acetic acid] | – | –
140 | Cc1cc(OC2CN(C(=O)[C@H](C)O)C2)cc(C)c1-c1cccc(COc2ccc3c(c2)OC[C@H]3CC(=O)O)c1 [Example 20, 2-((S)-6-((4′-((1-((S)-2-hydroxypropanoyl)azetidin-3-yl)oxy)-2′,6′-dimethylbiphenyl-3-yl)methoxy)-2,3-dihydrobenzofuran-3-yl)acetic acid] | – | –
113 | Cc1cc(O[C@H]2CCOC2)cc(C)c1-c1cccc(COc2ccc3c(c2)OC[C@H]3CC(=O)O)c1C [Example 12, 2-((S)-6-((2,2′,6′-Trimethyl-4′-(((S)-tetrahydrofuran-3-yl)oxy)biphenyl-3-yl)methoxy)-2,3-dihydrobenzofuran-3-yl)acetic acid] | – | –
113 | Cc1cc(O[C@H]2CCOC2)cc(C)c1-c1cccc(COc2ccc3c(c2)OC[C@@H]3CC(=O)O)c1 [Example 34, 2-((R)-6-((2′,6′-dimethyl-4′-(((S)-tetrahydrofuran-3-yl)oxy)biphenyl-3-yl)methoxy)-2,3-dihydrobenzofuran-3-yl)acetic acid] | – | –
81 | Cc1cc(OC2CCNCC2)cc(C)c1-c1cccc(COc2ccc3c(c2)OC[C@H]3CC(=O)O)c1 [Example 4, (S)-2-(6-((2′,6′-Dimethyl-4′-(piperidin-4-yloxy)biphenyl-3-yl)methoxy)-2,3-dihydrobenzofuran-3-yl)acetic acid] | – | –
77 | Cc1cc(OC2CCN(C(=O)[C@H](C)O)CC2)cc(C)c1-c1cccc(COc2ccc3c(c2)OC[C@H]3CC(=O)O)c1 [Example 22, 2-((S)-6-((4′-((1-((S)-2-hydroxypropanoyl)piperidin-4-yl)oxy)-2′,6′-dimethylbiphenyl-3-yl)methoxy)-2,3-dihydrobenzofuran-3-yl)acetic acid] | – | –
73 | Cc1cc(O[C@@H]2CCN(S(C)(=O)=O)C2)cc(C)c1-c1cccc(COc2ccc3c(c2)OC[C@H]3CC(=O)O)c1 [Example 11, 2-((S)-6-((2′,6′-Dimethyl-4′-(((R)-1-(methylsulfonyl)pyrrolidin-3-yl)oxy)biphenyl-3-yl)methoxy)-2,3-dihydrobenzofuran-3-yl)acetic acid] | – | –
52 | Cc1cc(O[C@@H]2CCOC2)cc(C)c1-c1ccc(F)c(COc2ccc3c(c2)OC[C@H]3CC(=O)O)c1 [Example 26, 2-((S)-6-((4-fluoro-2′,6′-dimethyl-4′-(((R)-tetrahydrofuran-3-yl)oxy)biphenyl-3-yl)methoxy)-2,3-dihydrobenzofuran-3-yl)acetic acid] | 26.06 | –
31 | Cc1cc(O[C@@H]2CC[C@H](O)[C@@H]2O)cc(C)c1-c1cccc(COc2ccc3c(c2)OC[C@H]3CC(=O)O)c1 [Example 25, 2-((S)-6-((4′-(((1R,2S,3S)-2,3-dihydroxycyclopentyl)oxy)-2′,6′-dimethylbiphenyl-3-yl)methoxy)-2,3-dihydrobenzofuran-3-yl)acetic acid] | – | –
28 | Cc1cc(O[C@H]2CCOC2)cc(C)c1-c1ccc(F)c(COc2ccc3c(c2)OC[C@H]3CC(=O)O)c1 [Example 18, 2-((S)-6-((4-Fluoro-2′,6′-dimethyl-4′-(((S)-tetrahydrofuran-3-yl)oxy)biphenyl-3-yl)methoxy)-2,3-dihydrobenzofuran-3-yl)acetic acid] | 44.13 | –
15 | Cc1cc(OC2CNC2)cc(C)c1-c1cccc(COc2ccc3c(c2)OC[C@H]3CC(=O)O)c1 [Example 16, (S)-2-(6-((4′-(Azetidin-3-yloxy)-2′,6′-dimethylbiphenyl-3-yl)methoxy)-2,3-dihydrobenzofuran-3-yl)acetic acid] | 15.72 | –
